Assay results published in patent publication US10092606B2, “Synbiotic mixture” (Nestec S.A., priority 2006, dated 2018).

Biological target: toxin A from C. difficile (Clostridioides difficile, UniProt P16154)
Test: Protection of T84 monolayers against C. difficile toxin A (transepithelial electrical resistance)
Assay type: cell-based, Clostridium difficile
Conditions: T84 cells; prebiotic in combination with the same probiotic strains; fructooligosaccharides 20 g/l, galactooligosaccharides 20 g/l, sialyllactose 10 g/l; compared with preparations of the invention; FIG. 2

Sequence of toxin A from C. difficile (P16154 whole entry, looked up): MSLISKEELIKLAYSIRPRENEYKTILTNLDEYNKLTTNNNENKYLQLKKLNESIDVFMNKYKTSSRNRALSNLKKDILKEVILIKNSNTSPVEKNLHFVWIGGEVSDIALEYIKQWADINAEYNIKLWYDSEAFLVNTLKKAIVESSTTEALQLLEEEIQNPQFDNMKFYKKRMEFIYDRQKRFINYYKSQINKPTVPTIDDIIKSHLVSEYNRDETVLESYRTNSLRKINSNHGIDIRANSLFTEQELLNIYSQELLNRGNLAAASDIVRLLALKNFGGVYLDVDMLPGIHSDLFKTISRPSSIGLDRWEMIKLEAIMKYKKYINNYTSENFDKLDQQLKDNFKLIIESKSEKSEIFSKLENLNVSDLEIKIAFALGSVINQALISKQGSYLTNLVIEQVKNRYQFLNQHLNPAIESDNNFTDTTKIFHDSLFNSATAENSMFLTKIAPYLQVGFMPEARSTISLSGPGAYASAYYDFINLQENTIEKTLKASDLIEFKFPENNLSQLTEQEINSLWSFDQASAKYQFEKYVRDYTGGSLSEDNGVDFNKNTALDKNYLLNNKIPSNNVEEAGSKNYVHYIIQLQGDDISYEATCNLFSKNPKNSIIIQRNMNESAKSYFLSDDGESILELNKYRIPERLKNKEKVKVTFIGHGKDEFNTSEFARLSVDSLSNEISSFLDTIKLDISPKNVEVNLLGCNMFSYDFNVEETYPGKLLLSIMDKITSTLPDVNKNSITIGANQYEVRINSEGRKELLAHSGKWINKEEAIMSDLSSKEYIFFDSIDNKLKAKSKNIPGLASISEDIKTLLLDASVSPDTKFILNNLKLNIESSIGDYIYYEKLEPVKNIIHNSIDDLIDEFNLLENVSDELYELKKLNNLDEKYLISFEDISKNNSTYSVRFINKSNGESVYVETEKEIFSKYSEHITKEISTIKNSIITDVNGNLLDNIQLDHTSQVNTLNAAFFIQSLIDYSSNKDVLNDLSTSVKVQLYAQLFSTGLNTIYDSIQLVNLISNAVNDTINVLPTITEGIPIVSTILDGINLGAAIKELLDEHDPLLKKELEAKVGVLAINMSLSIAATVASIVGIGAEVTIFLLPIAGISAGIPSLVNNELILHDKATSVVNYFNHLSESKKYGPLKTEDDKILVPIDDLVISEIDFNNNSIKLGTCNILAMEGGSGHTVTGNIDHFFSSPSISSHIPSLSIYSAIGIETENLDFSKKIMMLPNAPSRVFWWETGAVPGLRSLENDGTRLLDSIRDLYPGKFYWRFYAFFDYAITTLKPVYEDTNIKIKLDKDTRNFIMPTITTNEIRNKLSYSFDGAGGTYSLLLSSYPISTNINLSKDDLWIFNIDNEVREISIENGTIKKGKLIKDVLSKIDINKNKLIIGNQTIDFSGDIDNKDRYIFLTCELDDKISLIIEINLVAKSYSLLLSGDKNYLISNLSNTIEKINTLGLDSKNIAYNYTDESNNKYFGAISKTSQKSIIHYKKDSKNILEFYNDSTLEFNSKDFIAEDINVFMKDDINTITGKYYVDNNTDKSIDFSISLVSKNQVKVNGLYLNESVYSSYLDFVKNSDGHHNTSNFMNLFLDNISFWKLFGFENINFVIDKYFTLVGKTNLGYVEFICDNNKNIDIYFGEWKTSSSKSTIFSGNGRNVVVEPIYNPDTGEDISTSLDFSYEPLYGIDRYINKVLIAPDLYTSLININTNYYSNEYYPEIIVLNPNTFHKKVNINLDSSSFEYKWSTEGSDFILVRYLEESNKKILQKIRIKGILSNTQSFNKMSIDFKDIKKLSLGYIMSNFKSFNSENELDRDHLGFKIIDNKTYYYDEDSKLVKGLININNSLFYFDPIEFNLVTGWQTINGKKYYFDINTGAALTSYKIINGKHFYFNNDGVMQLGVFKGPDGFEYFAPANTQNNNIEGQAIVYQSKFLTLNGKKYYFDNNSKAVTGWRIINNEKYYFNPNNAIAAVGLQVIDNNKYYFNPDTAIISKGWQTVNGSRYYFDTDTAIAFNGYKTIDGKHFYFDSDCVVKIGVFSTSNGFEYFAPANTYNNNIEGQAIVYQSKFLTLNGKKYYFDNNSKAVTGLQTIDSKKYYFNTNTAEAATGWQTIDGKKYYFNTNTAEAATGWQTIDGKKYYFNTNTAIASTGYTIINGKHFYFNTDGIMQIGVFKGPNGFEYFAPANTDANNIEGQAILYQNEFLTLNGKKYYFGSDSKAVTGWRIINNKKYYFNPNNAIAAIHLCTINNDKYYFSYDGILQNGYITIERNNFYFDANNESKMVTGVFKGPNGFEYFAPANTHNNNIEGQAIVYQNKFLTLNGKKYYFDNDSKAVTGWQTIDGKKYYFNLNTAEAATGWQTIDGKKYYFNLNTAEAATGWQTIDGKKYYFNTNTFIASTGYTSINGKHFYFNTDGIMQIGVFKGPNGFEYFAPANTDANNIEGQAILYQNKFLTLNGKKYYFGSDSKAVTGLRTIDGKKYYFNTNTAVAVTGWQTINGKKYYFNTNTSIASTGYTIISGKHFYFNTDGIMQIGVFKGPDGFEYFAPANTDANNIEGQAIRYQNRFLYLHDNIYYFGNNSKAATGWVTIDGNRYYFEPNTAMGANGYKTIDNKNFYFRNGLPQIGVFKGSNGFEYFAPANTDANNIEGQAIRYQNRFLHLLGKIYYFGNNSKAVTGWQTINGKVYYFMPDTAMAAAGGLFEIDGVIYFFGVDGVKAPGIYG

Question: Which “effect against C. difficile toxin A (TER, normalized protection score)” value does the source give for sialyllactose here?
Answer: The value was “a comparable effect was not achieved”.
